Reference: patent US20150164762A1, “USE OF ETHANOLAMINE PHOSPHATE” (priority 2012, published 2015)

System: BEAS-2B
Test: Comprehensive gene expression analysis with Whole Human Genome DNA microarray after EP treatment
Assay type: cell-based
Method: Cells of the established normal human airway epithelial cell line BEAS-2B were used in the experiment. These cells were expansively cultured in 10% FBS RPMI-1640, and seeded at a density of 1×10^5/cm^2 on a 24-well plate. After 24 hours 0.1% FBS RPMI-1640 was substituted, and EP was administered to a final concentration of 0 or 1 mM (n=4). After 24 hours, the cells were used as the DNA microarray samples. RNA was extracted using a QIAGEN RNeasy Mini Kit. The DNA microarray test was performed using a Whole Human Genome DNA microarray 4×44K (Agilent), and the necessary labeling reagents and the like for the DNA microarray test were all from Agilent. The DNA microarray test data were analyzed statistically with GeneSpring (Agilent) dedicated analysis software, and gene function analysis (Gene Ontology (GO) analysis) was performed based on differential expression. The purpose of the GO analysis is to determine stochastically the degree to which gene sets with statistically significant differential expression correspond to known functional classification gene sets. […] The p-value is calculated according to the following formula.

[1] = probe A_23_P306987, 1 mM EP, 24 h
[2] = probe A_23_P315815, NM_004495, EP vs control
[3] = probe A_23_P326913, BC019095, EP vs control
[4] = probe A_23_P336611, 1 mM EP, 24 h
[5] = probe A_23_P337242, 1 mM EP, 24 h
[6] = probe A_23_P344421, 1 mM EP, 24 h
[7] = probe A_23_P346311, 1 mM EP, 24 h
[8] = probe A_23_P358944, 1 mM EP, 24 h
[9] = probe A_23_P360777, NM_013960, EP vs control
[10] = probe A_23_P360797, 1 mM EP, 24 h
[11] = probe A_23_P371727, 1 mM EP, 24 h
[12] = probe A_23_P373521, 1 mM EP, 24 h
[13] = probe A_23_P382775, 1 mM EP, 24 h
[14] = probe A_23_P383278, NM_023078, EP vs control
[15] = probe A_23_P404887, 1 mM EP, 24 h
[16] = probe A_23_P407012, NM_172210, EP vs control
[17] = probe A_23_P411296, 1 mM EP, 24 h
[18] = probe A_23_P426305, NM_003734, EP vs control
[19] = probe A_23_P500034, 1 mM EP, 24 h
[20] = probe A_23_P502553, 1 mM EP, 24 h
[21] = probe A_23_P2094013, 1 mM EP, 24 h
[22] = probe A_24_P4661, 1 mM EP, 24 h
[23] = probe A_24_P12401, NM_001025366, EP vs control
[24] = probe A_24_P18105, NM_032466, EP vs control
[25] = probe A_24_P38363, 1 mM EP, 24 h
[26] = probe A_24_P60930, NM_006129, EP vs control
[27] = probe A_24_P83815, 1 mM EP, 24 h
[28] = probe A_24_P122921, 1 mM EP, 24 h
[29] = probe A_24_P135322, 1 mM EP, 24 h
[30] = probe A_24_P139152, 1 mM EP, 24 h
[31] = probe A_24_P139993, 1 mM EP, 24 h
[32] = probe A_24_P175519, NM_003329, EP vs control
[33] = probe A_24_P179400, NM_001025370, EP vs control
[34] = probe A_24_P193911, 1 mM EP, 24 h
[35] = probe A_24_P200000, NM_182915, EP vs control
[36] = probe A_24_P207479, 1 mM EP, 24 h
[37] = probe A_24_P209047, NM_000879, EP vs control

In the case of `NCCOP(=O)(O)O` [EP, Ethanolamine phosphate], the “SOX7 expression R: Ratio to control” value [1] is reported as 0.338 times, the “SOX7 expression log2 [ratio]” value [1] is reported as −1.568 and the “NRG1 gene expression, R* ratio to control” value [2] is reported as 0.666 times. The “NRG1 gene expression, log2 [ratio]” value [2] was −0.586, the “PRUNE2 gene expression, R* ratio to control” value [3] was 1.441 times and the “PRUNE2 gene expression, log2 [ratio]” value [3] was 0.527. The “APAF1 expression R*: Ratio to control” value [4] was 0.420 times, the “APAF1 expression log2 [ratio]” value [4] was −1.253 and the “TGFBR2 expression R*: Ratio to control” value [5] was 1.630 times. The “TGFBR2 expression log2 [ratio]” value [5] was 0.705, the “ROBO4 expression R*: Ratio to control” value [6] was 1.633 times and the “ROBO4 expression log2 [ratio]” value [6] was 0.707. The “BAX expression R*: Ratio to control” value [7] was 0.511 times, the “BAX expression log2 [ratio]” value [7] was −0.969 and the “PML expression R: Ratio to control” value [8] was 0.586 times. For the same compound, the “PML expression log2 [ratio]” value [8] was −0.770, the “NRG1 gene expression, R* ratio to control” value [9] was 0.651 times and the “NRG1 gene expression, log2 [ratio]” value [9] was −0.620. For the same compound, the “NTF3 expression R: Ratio to control” value [10] was 0.492 times, the “NTF3 expression log2 [ratio]” value [10] was −1.024 and the “CKS2 expression R*: Ratio to control” value [11] was 1.510 times. The “CKS2 expression log2 [ratio]” value [11] was 0.595, the “HAND2 expression R*: Ratio to control” value [12] was 1.971 times and the “HAND2 expression log2 [ratio]” value [12] was 0.979. The “BBC3 expression R*: Ratio to control” value [13] was 0.315 times, the “BBC3 expression log2 [ratio]” value [13] was −1.566 and the “PYCRL gene expression, R* ratio to control” value [14] was 1.441 times. For the same compound, the “PYCRL gene expression, log2 [ratio]” value [14] was 0.527, the “BIK expression R*: Ratio to control” value [15] was 0.298 times and the “BIK expression log2 [ratio]” value [15] was −1.743. The “CSF1 gene expression, R* ratio to control” value [16] was 0.593 times, the “CSF1 gene expression, log2 [ratio]” value [16] was −0.753 and the “CEBPB expression R*: Ratio to control” value [17] was 0,383 times. The “CEBPB expression log2 [ratio]” value [17] was −1.385, the “AOC3 gene expression, R* ratio to control” value [18] was 1.540 times and the “AOC3 gene expression, log2 [ratio]” value [18] was 0.623. The “GL12 expression R*: Ratio to control” value [19] was 2.060 times, the “GL12 expression log2 [ratio]” value [19] was 1.043 and the “TRIM35 expression R*: Ratio to control” value [20] was 0.618 times. For the same compound, the “TRIM35 expression log2 [ratio]” value [20] was −0.695, the “CASP10 expression R*: Ratio to control” value [21] was 0.552 times and the “CASP10 expression log2 [ratio]” value [21] was −0.857. The “E124 expression R*: Ratio to control” value [22] was 0.652 times, the “E124 expression log2 [ratio]” value [22] was −0.618 and the “VEGFA gene expression, R* ratio to control” value [23] was 0.540 times. For the same compound, the “VEGFA gene expression, log2 [ratio]” value [23] was −0.889, the “ASPH gene expression, R* ratio to control” value [24] was 1.560 times and the “ASPH gene expression, log2 [ratio]” value [24] was 0.642. For the same compound, the “MYC expression R*: Ratio to control” value [25] was 1.686 times, the “MYC expression log2 [ratio]” value [25] was 0.754 and the “BMP1 gene expression, R* ratio to control” value [26] was 0.613 times. The “BMP1 gene expression, log2 [ratio]” value [26] was −0.706, the “NLRP1 expression R*: Ratio to control” value [27] was 0.558 times and the “NLRP1 expression log2 [ratio]” value [27] was −0.841. For the same compound, the “BCL2L11 expression R*: Ratio to control” value [28] was 0.636 times, the “BCL2L11 expression log2 [ratio]” value [28] was −0.652 and the “NRP1 expression R*: Ratio to control” value [29] was 1.664 times. The “NRP1 expression log2 [ratio]” value [29] was 0.735, the “COL8A1 expression R*: Ratio to control” value [30] was 1.703 times and the “COL8A1 expression log2 [ratio]” value [30] was 0.768. For the same compound, the “CASP10 expression R*: Ratio to control” value [31] was 0.609 times, the “CASP10 expression log2 [ratio]” value [31] was −0.716 and the “TXN gene expression, R* ratio to control” value [32] was 1.438 times. The “TXN gene expression, log2 [ratio]” value [32] was 0.524, the “VEGFA gene expression, R* ratio to control” value [33] was 0.650 times and the “VEGFA gene expression, log2 [ratio]” value [33] was −0.621. For the same compound, the “MAPRE2 expression R*: Ratio to control” value [34] was 1.666 times, the “MAPRE2 expression log2 [ratio]” value [34] was 0.736 and the “STEAP3 gene expression, R* ratio to control” value [35] was 2.009 times. The “STEAP3 gene expression, log2 [ratio]” value [35] was 1.007, the “DEDD2 expression R*: Ratio to control” value [36] was 0.597 times and the “DEDD2 expression log2 [ratio]” value [36] was −0.744. For the same compound, the “IL5 gene expression, R* ratio to control” value [37] was 0.304 times and the “IL5 gene expression, log2 [ratio]” value [37] was −1.719.
